Laboratory results reported in patent US20050069517A1, “Hair conditioning compositions” (priority 2003, published 2005).

Test: Hair penetration by TOF-SIMS imaging of cross sections of treated hair fibers
Format: physicochemical, human
Conditions: bleached dark brown European hair; agent massaged in, 24 hours at approximately 32° C., rinsed 1 minute, air-dried; positive-ion TOF-SIMS images
Description: What is meant by “penetrate” is that the hair conditioning agent is deposited into a region of the hair following application of the conditioning agent to the hair for twenty-four hours. Such analysis of hair penetration is set forth below in Example 8.
Various hair conditioning agents were tested for their ability to penetrate into human hair. Secondary ion mass spectrometry (SIMS) in combination with a time of flight (TOF) mass spectrometer was used to determine hair penetration. Time-Of-Flight Secondary Ion Mass Spectrometry (TOF-SIMS) makes use of the secondary ion mass spectra (of atomic species or low molecular weight fragments), which are formed when the sample surface (e.g., surface of hair fiber cross sections) is bombarded with a positively charged gallium ion beam. The positive and negative ion mass spectra of the sample were obtained by the time-of-flight method. See, e.g., Ruetsch, et al., J. Cosmet. Sci., 52, 169-184 (2001). The Gallium gun, which emits a pulsed primary ion beam (accelerating voltage of 25 kV), was used in the study.
The protocol was as follows. Dark brown European hair obtained from DeMeo Brothers, New York, N.Y. was bleached for 30 minutes with alkaline 6% hydrogen peroxide (adjusted to pH 10.2 with ammonium hydroxide). […]

Structure (SMILES): CCCCCCCCCCCCCCCC(=O)N[C@@H](CO)C(=O)OCCCCCCCCCCCCCC [Palmitoyl Myristyl Serinate]
- penetration of hair conditioning agent into hair fiber cross section: not detected in the cross section of treated hair
